Assay results taken from patent EP0402717A1, “5-nitro-tetrahydropyrimidines and insecticides containing them for agricultural uses” (NIHON BAYER AGROCHEM K.K., priority 1989, dated 1990).

Columns and labels:
Assay type in all cases: in vivo
NiIaparvata lugens Stal = experiment: Test on plant hoppers (spray on rice plants), brown rice planthopper; details: 48 h, read-out: Mortality (%) Brown rice planthopper
Procedure: (§1) A water dilution in a predetermined concentration of the active compound prepared as in Example 4 was sprayed onto rice plants, about 10 cm tall, grown in pots with a diameter of 12 cm in an amount of 10 ml per pot. The sprayed chemical was dried, and a wire net, 7 cm in diameter and 14 cm tall, was put over each of the pots. […] The mortality was then calculated.

[1] = system: Laodelphax striatellus Fallen; experiment: Test on plant hoppers (spray on rice plants), small brown planthopper; details: 48 h, read-out: Mortality (%) Small brown planthopper
Procedure: as §1
(§2) In the same way as above, the mortality was calculated on Sogatella furcifera Horvath and organophosphorus-resistant Laodelphax striatellus Fallen.

[2] = system: Sogatella furcifera Horvath; experiment: Test on plant hoppers (spray on rice plants), white-backed rice planthopper; details: 48 h, read-out: Mortality (%) Whight bached rice planthopper
Procedure: as §1, §2

SMILES | mortality at 500 ppm (NiIaparvata lugens Stal) [%] | mortality at 500 ppm [1] [%] | mortality at 500 ppm [2] [%]
CCCCCCCCCCCCN1CC([N+](=O)[O-])=C(NC)N(Cc2ccc(Cl)nc2)C1 [Compound 41] | 100 | 100 | 100
O=c1[nH]c(=O)n2c(c1[N+](=O)[O-])NCC2 [Compound C-2] | 0 | 0 | 0
CN1CCN2C(=O)CCC([N+](=O)[O-])=C12 [Compound C-1] | 0 | 0 | 0
CNC1=C([N+](=O)[O-])CN(C)CN1Cc1ccc(Cl)nc1 [Compound 8] | 100 | 100 | 100
